Measurements reported in US7238340B1, “Monoamine, diamide, thiol-containing metal chelating agents” (CIS bio international, priority 1991, dated 2007).

Experiments:
thrombus = assay: In vivo imaging of deep vein thrombosis with Tc-99m labeled thrombus targeting peptide, canine model; details: Tc-99m labeled peptide, i.v., dog, ratio
Text: (§1) Mongrel dogs (25–35 lb., fasted overnight) were sedated with a combination of ketamine and aceprozamine intramuscularly and then anesthetized with sodium pentabarbital intravenously. In each animal, an 18-gauge angiocath was inserted in the distal half of the right femoral vein and a 5 mm or 8 mm Dacron®-entwined stainless steel embolization coil (Cook Co., Bloomington Ind.) was placed in the femoral vein at approximately mid-femur. The catheter was removed, the wound sutured and the placement of the coil documented by X-ray. The animals were then allowed to recover overnight.
(§2) One day following coil placement, each animal was re-anesthetized, intravenous saline drips placed in each foreleg and a urinary bladder catheter inserted to collect urine. The animal was placed supine under a gamma camera equipped with a low-energy, all purpose collimator and photopeaked for Tc-99m. […] The second line was maintained for blood collection.
(§3) Gamma camera imaging was started simultaneously with injection. Anterior images over the heart were acquired as a dynamic study (10 sec image acquisitions) over the first 10 min, and then as static images at 1, 2, 3 and 4h post-injection. Anterior images over the legs were acquired for 500,000 counts or 20 min (whichever is shorter), at approximately 10–20 min, and at approximately 1, 2, 3 and 4h post-injection. Leg images were collected with a lead shield placed over the bladder.
(§4) Following collection of the final image, each animal was deeply anesthetized with pentobarbital. Two blood samples were collected using a heparinized syringe followed by a euthanizing dose of saturated potassium chloride solution administered by intercardiac or bolus intravenous injection. […] The thrombus, coil and coil Dacron fibres were then dissected free of the vessel. The thrombus, saline-washed vessel samples, coil and coil Dacron® fibres were separated, and each sample was placed in a pre-weighed test tube. The samples were weighed and counted in a gamma well counter in the Tc-99m channel, along with known fractions of the injected doses.
(§5) Fresh thrombus weight, percent injected dose (% ID)/g in the thrombus and blood obtained just prior to euthanasia and thrombus/blood and thrombus/muscle ratios were determined. From the computer-stored images, thrombus/background ratios were determined by analysis of the counts/pixel measured in regions-of-interest (ROI) drawn over the thrombus and adjacent muscle.

[1] = as above; details: mongrel, dog, thrombus, iv, total radioactivity
Text: as §1, §2, §3, §4, §5

CC(=O)NCSC[C@H](NC(=O)CNC(=O)CNC(=O)[C@@H]1CSCC(=O)N[C@H](Cc2ccc(O)cc2)C(=O)N[C@@H](Cc2ccc(C(=N)N)cc2)C(=O)NCC(=O)N[C@@H](CC(=O)O)C(=O)N1)C(=O)NCC(=O)N[C@@H](CSCNC(C)=O)C(=O)NCC(=O)NCC(=O)N[C@@H](CSCC(=O)NCCCC[C@H](NC(=O)CSC[C@H](NC(=O)CNC(=O)CNC(=O)[C@H](CSCNC(C)=O)NC(=O)CNC(=O)[C@H](CSCNC(C)=O)NC(=O)CNC(=O)CNC(=O)[C@@H]1CSCC(=O)N[C@H](Cc2ccc(O)cc2)C(=O)N[C@@H](Cc2ccc(C(=N)N)cc2)C(=O)NCC(=O)N[C@@H](CC(=O)O)C(=O)N1)C(N)=O)C(=O)NCCCC[C@H](N)C(=O)NCC(=O)N[C@@H](CS)C(N)=O)C(N)=O [Peptide P747, (CH2CO.YD.Amp.GDCGGCAcmGCAcmGGC.amide)2(CH2CO)2K(ε-K)GC.amide]
Thrombus/Blood (thrombus): 15
Thrombus/Muscle (thrombus): 70
tissue uptake at 4 h [1]: 0.043 %ID/g
